Experimental data: ChEMBL document CHEMBL1201862, “PubChem BioAssay data set” (2004)
Activity calls are given as the source filed them.

Key:
[1] = system: HEK293; experiment: Fluorescence-based counterscreen for potentiators or agonists of NPY-Y1: cell-based high-throughput dose response assay for inhibitors of cyclic nucleotide gated ion channel (CNGC) activity. In this assay, the parental HEK293 cell line transfected with a cyclic-nucleotide gated ion channel (CNGC)-based cAMP sensor is used to measure inhibition of isoproterenol-induced CNGC …; type: functional; conditions: Homo sapiens
[2] = molecular target: T1, Neuropeptide Y receptor type 2 (Homo sapiens, UniProt P49146); experiment: Fluorescence-based counterscreen for agonists of NPY-Y1: cell-based high-throughput dose response assay for agonists of NPY-Y2.; type: functional
T1 sequence (P49146 whole entry): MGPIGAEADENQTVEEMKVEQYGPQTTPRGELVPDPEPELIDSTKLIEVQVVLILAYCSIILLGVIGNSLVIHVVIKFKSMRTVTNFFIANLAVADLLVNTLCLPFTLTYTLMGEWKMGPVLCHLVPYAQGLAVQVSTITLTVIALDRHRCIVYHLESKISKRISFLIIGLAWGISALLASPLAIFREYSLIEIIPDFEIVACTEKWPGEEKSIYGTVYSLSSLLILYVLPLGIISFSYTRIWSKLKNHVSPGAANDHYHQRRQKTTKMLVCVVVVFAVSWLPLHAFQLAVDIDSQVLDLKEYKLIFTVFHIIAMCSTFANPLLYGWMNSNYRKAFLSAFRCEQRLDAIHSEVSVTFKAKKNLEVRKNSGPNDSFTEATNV

[3] = molecular target: T2, Neuropeptide Y receptor type 1 (Homo sapiens, UniProt P25929); experiment: Fluorescence-based dose response cell-based high-throughput screening assay for agonists of NPY-Y1. [Related pubchem assays: 1697 (Screening assay (NPY-Y1 agonists).), 1359 (Screening assay (NPY-Y2 potentiators or agonists).), 1304 (Screening assay (NPY-Y1 potentiators or agonists).), 1704 (Screening assay (CNGC inhibitors).), 1791 (Summary AID.)]; type: functional
T2 sequence (P25929 whole entry): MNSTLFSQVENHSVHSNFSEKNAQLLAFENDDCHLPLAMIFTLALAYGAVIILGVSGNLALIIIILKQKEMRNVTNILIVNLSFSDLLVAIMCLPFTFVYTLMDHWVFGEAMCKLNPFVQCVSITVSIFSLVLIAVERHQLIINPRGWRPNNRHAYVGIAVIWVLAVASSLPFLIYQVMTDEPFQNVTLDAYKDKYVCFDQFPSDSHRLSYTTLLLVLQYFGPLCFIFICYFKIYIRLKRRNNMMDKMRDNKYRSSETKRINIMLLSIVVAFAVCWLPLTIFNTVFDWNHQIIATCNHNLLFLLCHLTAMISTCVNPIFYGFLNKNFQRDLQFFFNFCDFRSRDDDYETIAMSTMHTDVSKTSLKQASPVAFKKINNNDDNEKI

[4] = molecular target: T3, Mannose-6-phosphate isomerase (Homo sapiens, UniProt P34949); experiment: MPI inhibition at elevated mannose 6-phosphate – biochemical, fluorescence intensity, high mannose 6-phosphate, primary screen (AID 1220)
T3 sequence (P34949 whole entry): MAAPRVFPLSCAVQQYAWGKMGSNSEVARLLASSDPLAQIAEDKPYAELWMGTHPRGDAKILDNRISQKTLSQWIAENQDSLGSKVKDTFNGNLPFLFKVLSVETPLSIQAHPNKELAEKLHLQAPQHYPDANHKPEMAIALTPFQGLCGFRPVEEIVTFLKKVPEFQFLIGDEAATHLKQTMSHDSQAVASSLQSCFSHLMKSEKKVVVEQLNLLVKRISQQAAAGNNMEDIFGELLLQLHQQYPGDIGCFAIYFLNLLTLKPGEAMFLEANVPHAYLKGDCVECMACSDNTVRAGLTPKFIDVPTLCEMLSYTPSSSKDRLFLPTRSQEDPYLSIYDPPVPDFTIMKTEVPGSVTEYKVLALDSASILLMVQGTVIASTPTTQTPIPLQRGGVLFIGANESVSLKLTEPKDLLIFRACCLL

[5] = system: H4; experiment: Luminescence Cell-Based Dose Response HTS to Identify Activators of 5'UTR Stem-Loop Driven Prion Protein mRNA Translation in H4 Neuroglioblastoma Cells. [Related pubchem assays: 1829 (Project Summary), 1814 (Primary HTS)]; type: functional; conditions: Homo sapiens
[6] = molecular target: Serine/threonine-protein phosphatase PP1-alpha catalytic subunit (Homo sapiens, UniProt P62136); experiment: inhibition of protein phosphatase 1 activity – biochemical, fluorescence, dose response (AID 2403);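 further: phosphatase turnover of OMFP into fluorescent 3-O-methylfluorescein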
[7] = molecular target: Serine/threonine-protein phosphatase (Homo sapiens, UniProt Q9BPW0); experiment: Counterscreen for inhibitors of PP1: fluorescence-based biochemical high throughput dose response assay to identify inhibitors of Protein Phosphatase 5 (PP5). [Related pubchem assays: 2034 (Summary (PP5 inhibitors)), 1987 (PP5 inhibitors in singlate), 2235 (PP1 inhibitors in singlate)]
[8] = molecular target: T4, Apoptotic protease-activating factor 1 (Homo sapiens, UniProt O14727); type: functional
T4 sequence (O14727 whole entry): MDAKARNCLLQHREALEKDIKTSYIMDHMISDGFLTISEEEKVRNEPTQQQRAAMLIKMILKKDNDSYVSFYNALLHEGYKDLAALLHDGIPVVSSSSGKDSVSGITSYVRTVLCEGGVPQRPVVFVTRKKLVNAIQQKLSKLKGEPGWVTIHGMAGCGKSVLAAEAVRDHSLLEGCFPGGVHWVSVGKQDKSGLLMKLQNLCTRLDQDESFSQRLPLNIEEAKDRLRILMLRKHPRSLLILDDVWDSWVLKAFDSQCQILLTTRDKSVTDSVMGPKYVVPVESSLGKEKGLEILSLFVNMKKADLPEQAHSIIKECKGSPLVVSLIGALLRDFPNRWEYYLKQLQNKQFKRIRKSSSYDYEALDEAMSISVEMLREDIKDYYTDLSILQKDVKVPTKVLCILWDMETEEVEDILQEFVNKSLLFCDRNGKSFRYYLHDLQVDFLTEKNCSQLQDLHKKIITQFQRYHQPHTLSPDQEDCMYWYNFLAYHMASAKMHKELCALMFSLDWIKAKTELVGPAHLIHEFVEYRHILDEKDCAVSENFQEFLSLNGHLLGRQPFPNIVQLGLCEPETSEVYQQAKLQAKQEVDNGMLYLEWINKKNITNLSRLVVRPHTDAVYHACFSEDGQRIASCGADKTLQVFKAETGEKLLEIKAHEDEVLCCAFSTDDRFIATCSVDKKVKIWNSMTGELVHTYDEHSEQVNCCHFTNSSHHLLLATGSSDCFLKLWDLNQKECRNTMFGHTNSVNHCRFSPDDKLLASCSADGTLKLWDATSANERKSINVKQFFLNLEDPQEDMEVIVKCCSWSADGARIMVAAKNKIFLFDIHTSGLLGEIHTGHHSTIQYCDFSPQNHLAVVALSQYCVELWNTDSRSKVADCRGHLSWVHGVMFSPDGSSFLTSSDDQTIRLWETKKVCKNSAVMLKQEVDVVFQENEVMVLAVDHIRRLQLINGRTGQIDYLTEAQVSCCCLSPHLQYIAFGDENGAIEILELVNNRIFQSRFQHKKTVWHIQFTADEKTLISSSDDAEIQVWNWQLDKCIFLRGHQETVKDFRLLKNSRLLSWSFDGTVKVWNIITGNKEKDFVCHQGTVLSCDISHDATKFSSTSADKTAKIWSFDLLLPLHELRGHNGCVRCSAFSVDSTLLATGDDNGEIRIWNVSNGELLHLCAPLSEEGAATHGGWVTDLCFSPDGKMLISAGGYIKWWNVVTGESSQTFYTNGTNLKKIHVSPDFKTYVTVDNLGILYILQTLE

[9] = Luminescence Cell-Based Dose Confirmation HTS to Identify Activators of 5'UTR Stem-Loop Driven Alpha-Synuclein mRNA Translation in H4 Neuroglioblastoma Cells. [Related pubchem assays: 1829 (Project Summary), 1814 (Primary HTS)]; type: functional
[10] = Luminescence Cell-Based Dose Response HTS to Identify Activators of Luciferase Translation or Activity in H4 […] Cells. [Related pubchem assays: 1829 (Project Summary), 1814 (Primary HTS)]; type: functional
[11] = molecular target: T5, Alkaline phosphatase, tissue-nonspecific isozyme (Homo sapiens, UniProt P05186)
T5 sequence (P05186 whole entry): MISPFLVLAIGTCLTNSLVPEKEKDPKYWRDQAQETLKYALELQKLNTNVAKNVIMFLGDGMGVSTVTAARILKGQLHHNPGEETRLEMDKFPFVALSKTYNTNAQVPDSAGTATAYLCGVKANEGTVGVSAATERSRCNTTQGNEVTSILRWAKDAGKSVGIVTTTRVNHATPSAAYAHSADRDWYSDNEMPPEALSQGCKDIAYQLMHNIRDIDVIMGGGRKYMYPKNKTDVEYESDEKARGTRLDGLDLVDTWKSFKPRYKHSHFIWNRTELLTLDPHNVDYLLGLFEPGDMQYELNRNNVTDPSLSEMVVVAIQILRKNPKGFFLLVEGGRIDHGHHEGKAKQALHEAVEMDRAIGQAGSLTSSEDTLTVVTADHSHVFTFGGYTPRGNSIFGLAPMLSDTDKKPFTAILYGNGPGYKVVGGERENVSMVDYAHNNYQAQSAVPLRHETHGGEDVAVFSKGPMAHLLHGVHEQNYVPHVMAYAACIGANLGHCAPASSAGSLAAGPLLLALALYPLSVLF

[12] = molecular target: Intestinal-type alkaline phosphatase (Homo sapiens, UniProt P09923); experiment: inhibition of human intestinal alkaline phosphatase – biochemical, dose response (AID 488876); type: functional
[13] = molecular target: T5, Alkaline phosphatase, tissue-nonspecific isozyme; experiment: TNAP enzyme inhibition by screening hits, dose response, selectivity assay for mouse IAP inhibitor project, biochemical, human TNAP, uHTS hits (AID 488906); type: functional
[14] = molecular target: Phospholipase A2 (Homo sapiens, UniProt P04054); type: functional;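 further: confirmatory dose-response counterscreen on phospholipase A2, testing hits that came from an ultra-high-throughput screen for ATG4B inhibitors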
[15] = molecular target: Intestinal-type alkaline phosphatase (Mus musculus, UniProt P24822); experiment: PubChem AID 488785; type: functional
[16] = molecular target: Cysteine protease ATG4B (Homo sapiens, UniProt Q9Y4P1); type: functional;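 further: Fluorescence-based dose-response confirmation assay measuring inhibition of ATG4B activity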
[17] = molecular target: T6, Short transient receptor potential channel 4 (Mus musculus, UniProt Q9QUQ5); experiment: block of DAMGO-driven TRPC4 calcium entry – cell-based, HEK293 TRPC4/mu-opioid, Fluo-4 calcium, dose response (AID 434942); type: functional;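 further: potency of inhibitors blocking the TRPC4 calcium response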
T6 sequence (Q9QUQ5 whole entry): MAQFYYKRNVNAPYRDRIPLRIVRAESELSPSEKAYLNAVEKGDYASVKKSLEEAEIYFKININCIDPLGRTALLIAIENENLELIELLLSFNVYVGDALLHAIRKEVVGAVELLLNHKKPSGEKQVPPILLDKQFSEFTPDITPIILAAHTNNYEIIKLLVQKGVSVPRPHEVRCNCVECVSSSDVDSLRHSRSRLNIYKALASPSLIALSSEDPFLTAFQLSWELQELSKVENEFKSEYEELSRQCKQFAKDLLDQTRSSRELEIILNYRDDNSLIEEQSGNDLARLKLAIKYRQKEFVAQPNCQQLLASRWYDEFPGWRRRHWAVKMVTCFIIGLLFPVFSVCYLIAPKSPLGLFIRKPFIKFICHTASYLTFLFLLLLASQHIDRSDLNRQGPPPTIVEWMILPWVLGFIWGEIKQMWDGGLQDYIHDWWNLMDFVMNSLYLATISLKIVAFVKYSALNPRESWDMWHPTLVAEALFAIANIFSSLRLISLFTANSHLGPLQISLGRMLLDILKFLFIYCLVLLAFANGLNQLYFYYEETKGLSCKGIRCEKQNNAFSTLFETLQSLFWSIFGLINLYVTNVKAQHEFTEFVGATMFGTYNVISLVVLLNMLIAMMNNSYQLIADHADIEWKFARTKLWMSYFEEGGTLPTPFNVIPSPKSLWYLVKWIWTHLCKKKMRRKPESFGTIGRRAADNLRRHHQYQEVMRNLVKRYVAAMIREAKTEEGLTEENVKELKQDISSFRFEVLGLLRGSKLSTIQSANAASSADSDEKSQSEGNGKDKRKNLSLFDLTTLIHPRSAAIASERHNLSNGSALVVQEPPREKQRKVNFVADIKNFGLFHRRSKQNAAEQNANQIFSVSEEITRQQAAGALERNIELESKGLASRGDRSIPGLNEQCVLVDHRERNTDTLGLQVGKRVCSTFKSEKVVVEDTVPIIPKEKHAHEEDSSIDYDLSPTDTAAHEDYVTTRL

[18] = system: Streptococcus; experiment: Luminescence Microorganism-Based Dose Response Follow up to Identify Compounds Cytotoxic to Streptococcus. [Related pubchem assays: 1677 (Project Summary), 1915, 1914, 1902 (Retest at Dose), 1900 (Counter Screen), 1662 (Primary HTS)]; type: functional, organism-based
[19] = molecular target: Mothers against decapentaplegic homolog 3 (Homo sapiens, UniProt P84022); experiment: blockers of Smad3 complex formation in lysate – cell lysate, secondary confirmation, chemiluminescent ELISA, HEK293 lysate, dose response (AID 1058); type: functional
[20] = molecular target: Mitochondrial peptide methionine sulfoxide reductase (Bos taurus, UniProt P54149); type: functional;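 further: absorbance read-out, biochemical high-throughput dose-response screen for MsrA inhibitors, confirmatory; recombinant bovine MsrA coupled to E. coli TrxB with NADPH and selenocystamine; potency is for inhibitors of MsrA activity on DMSO substrate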
[21] = molecular target: T7, Eukaryotic translation initiation factor 2-alpha kinase 3 (Homo sapiens, UniProt Q9NZJ5); experiment: Counterscreen assay for PERK inhibitors: Dose response cell-based high throughput screening assay to measure inhibition of PERK at 6 hours. [Related pubchem assays: 1522, 1416 ]; type: functional
[22] = molecular target: T7, Eukaryotic translation initiation factor 2-alpha kinase 3; experiment: Dose response cell-based high-throughput screening assay to measure PERK inhibition. [Related pubchem assays: 1416 ]; type: functional

T7 sequence (Q9NZJ5 whole entry): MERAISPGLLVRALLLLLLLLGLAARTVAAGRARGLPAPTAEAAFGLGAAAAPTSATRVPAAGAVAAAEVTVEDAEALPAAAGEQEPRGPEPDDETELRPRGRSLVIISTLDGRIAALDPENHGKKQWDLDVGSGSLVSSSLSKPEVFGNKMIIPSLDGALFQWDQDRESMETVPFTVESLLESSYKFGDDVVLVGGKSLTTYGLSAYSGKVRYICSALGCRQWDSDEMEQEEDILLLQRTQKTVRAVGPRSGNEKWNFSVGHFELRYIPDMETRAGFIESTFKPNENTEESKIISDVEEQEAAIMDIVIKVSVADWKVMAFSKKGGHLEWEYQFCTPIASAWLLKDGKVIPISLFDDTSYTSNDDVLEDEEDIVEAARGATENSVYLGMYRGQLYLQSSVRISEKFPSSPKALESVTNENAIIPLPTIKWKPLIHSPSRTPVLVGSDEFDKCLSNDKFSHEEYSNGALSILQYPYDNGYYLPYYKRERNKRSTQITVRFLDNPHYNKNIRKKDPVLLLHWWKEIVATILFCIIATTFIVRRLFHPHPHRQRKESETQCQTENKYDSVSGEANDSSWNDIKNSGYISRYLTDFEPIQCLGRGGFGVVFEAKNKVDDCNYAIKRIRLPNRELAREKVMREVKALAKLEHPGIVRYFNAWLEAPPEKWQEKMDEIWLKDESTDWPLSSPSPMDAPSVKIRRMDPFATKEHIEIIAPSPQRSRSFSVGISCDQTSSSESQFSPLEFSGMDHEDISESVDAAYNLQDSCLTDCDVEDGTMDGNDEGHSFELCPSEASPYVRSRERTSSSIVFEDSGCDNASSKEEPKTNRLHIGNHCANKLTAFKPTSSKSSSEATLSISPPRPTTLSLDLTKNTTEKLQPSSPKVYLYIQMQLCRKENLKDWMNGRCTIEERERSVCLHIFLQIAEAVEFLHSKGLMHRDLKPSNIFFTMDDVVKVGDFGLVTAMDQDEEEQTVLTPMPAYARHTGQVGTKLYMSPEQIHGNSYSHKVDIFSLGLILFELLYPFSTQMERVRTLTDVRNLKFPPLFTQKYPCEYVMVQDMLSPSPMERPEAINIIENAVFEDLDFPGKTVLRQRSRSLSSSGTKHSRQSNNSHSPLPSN
Cysteine protease ATG4B, sequence (Q9Y4P1 whole entry): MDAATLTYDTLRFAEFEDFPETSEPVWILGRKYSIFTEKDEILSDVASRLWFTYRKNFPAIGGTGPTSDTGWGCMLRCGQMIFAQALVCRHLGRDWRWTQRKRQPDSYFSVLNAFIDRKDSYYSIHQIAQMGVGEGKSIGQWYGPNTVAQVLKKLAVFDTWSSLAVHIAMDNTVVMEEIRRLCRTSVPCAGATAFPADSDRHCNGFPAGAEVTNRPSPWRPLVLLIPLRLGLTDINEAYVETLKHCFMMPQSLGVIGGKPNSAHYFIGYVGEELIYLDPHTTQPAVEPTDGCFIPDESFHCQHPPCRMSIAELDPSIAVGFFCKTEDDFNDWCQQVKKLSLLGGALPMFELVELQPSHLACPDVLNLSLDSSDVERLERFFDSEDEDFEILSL
Mitochondrial peptide methionine sulfoxide reductase, sequence (P54149 whole entry): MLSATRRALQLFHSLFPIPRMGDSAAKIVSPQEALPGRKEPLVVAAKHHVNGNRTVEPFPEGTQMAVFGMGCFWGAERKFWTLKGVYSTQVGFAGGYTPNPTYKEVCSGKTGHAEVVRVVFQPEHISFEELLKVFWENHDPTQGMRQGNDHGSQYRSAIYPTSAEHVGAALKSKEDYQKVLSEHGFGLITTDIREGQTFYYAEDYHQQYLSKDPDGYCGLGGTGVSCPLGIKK
Mothers against decapentaplegic homolog 3, sequence (P84022 whole entry): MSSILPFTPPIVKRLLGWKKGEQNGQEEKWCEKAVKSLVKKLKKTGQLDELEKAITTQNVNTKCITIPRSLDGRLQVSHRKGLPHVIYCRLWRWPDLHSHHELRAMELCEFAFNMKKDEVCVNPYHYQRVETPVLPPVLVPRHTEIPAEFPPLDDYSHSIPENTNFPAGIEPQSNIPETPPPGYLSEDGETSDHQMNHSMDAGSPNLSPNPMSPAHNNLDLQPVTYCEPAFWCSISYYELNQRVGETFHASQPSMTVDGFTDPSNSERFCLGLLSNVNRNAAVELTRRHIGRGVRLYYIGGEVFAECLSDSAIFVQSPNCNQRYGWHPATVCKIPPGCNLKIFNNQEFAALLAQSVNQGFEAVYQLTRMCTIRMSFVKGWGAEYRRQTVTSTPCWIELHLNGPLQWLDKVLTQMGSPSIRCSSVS
Phospholipase A2, sequence (P04054 whole entry): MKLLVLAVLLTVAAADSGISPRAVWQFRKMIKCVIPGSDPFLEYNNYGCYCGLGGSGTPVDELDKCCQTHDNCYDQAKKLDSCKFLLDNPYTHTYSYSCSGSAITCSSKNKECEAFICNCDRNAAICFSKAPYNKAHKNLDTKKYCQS
Intestinal-type alkaline phosphatase (Homo sapiens, UniProt P09923), sequence (P09923 whole entry): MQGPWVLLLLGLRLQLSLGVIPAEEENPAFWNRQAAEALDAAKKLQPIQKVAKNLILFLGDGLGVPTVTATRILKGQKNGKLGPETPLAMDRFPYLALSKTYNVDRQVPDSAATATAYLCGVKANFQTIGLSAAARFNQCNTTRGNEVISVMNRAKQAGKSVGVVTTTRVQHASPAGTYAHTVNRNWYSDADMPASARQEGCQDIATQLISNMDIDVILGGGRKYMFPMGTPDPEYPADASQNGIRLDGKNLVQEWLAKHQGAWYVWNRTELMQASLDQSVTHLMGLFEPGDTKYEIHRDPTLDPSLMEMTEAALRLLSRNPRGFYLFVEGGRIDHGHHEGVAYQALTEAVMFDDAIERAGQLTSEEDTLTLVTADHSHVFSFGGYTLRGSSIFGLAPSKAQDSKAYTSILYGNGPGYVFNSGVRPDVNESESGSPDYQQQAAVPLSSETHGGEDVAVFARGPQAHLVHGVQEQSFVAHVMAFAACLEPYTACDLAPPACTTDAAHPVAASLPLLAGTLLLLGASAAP
Intestinal-type alkaline phosphatase (Mus musculus, UniProt P24822), sequence (P24822 whole entry): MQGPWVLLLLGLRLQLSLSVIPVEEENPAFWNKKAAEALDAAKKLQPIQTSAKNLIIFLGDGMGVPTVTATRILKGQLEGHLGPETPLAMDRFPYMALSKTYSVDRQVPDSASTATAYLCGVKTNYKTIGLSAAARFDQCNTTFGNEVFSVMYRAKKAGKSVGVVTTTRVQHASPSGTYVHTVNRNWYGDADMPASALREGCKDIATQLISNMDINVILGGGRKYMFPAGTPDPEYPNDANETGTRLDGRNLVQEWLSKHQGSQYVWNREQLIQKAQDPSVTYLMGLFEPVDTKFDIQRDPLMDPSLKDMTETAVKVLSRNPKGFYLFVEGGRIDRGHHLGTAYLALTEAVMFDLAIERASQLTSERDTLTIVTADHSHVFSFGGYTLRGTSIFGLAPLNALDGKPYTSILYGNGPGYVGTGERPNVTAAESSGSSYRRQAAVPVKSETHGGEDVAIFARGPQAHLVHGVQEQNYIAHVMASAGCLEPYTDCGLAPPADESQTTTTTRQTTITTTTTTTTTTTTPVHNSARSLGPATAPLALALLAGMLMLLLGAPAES
Serine/threonine-protein phosphatase, sequence (Q9BPW0 whole entry): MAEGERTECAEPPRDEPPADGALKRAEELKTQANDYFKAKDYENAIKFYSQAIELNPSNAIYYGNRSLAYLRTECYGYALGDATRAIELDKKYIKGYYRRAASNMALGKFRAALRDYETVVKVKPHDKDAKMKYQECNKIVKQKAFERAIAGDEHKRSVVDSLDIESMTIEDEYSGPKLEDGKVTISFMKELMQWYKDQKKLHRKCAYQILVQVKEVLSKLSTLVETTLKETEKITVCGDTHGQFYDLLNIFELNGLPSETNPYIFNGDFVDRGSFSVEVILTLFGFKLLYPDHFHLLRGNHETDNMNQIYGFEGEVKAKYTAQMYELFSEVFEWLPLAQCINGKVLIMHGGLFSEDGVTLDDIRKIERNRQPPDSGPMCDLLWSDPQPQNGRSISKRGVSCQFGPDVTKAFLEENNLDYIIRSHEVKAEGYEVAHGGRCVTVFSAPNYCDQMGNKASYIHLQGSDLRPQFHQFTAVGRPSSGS
Serine/threonine-protein phosphatase PP1-alpha catalytic subunit, sequence (P62136 whole entry): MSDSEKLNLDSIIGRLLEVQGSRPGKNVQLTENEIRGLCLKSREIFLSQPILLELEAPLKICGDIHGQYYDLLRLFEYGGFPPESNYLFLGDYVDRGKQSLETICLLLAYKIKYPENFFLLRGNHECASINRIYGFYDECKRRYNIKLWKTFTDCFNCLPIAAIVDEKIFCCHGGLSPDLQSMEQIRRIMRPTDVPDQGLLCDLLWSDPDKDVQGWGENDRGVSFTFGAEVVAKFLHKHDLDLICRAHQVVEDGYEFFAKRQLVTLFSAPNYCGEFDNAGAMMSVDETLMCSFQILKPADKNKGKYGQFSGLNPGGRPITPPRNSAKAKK

## CC(C)c1ccc2[nH]c(O)c(N=NC(=O)c3cccc(S(=O)(=O)Nc4cccc(Cl)c4)c3)c2c1
[1]
  IC50: > 35.4 µM (not active)
[2]
  EC50: > 35.4 µM (not active)
[3]
  EC50: > 35.4 µM (not active)

## N#Cc1c(N2CCCC(O)C2)nc(N)c2c(N)nc3c(c12)CC(=O)N3C12CC3CC(CC(C3)C1)C2 (configuration not stated)
[4]
  IC50: > 50 µM (not active)
[5]
  EC50: > 120 µM (not active)
[6]
  IC50: > 67 µM (not active)
[7]
  IC50: 29.5 µM (not active)
[8]
  IC50: 73 µM (active)
[9]
  EC50: 12.6 µM (active)
[10]
  EC50: 9.64 µM (active)

## Cc1ccc(CN2C3CCCC2CC(NC(=S)NCc2ccccc2)C3)cc1 (configuration not stated)
[11]
  EC50: 64.9 µM (not active)
[12]
  IC50: > 100 µM (inactive)
[13]
  IC50: 91.3 µM (active)
[14]
  IC50: 7.96 µM (active)
[15]
  IC50: 5.23 µM (active)
[16]
  IC50: 15.6 µM (active)
[17]
  EC50: 2.66 µM (active)

## O=C(c1ccc(Cl)cc1)n1c2ccccc2c2ccccc21
[18]
  EC50: > 500 µM (not active)

## COc1ccc(C(c2cc3c(cc2O)OCO3)N2CCOCC2)c(OC)c1OC (configuration not stated)
[19]
  IC50: 3.97 µM (not active)

## NC(=S)N/N=C/c1ccc(/C=N/NC(N)=S)cc1
[20]
  IC50: 155 µM (inactive)
[21]
  EC50: > 55.7 µM (not active)
[22]
  EC50: > 55.7 µM (not active)
